As usually defined, the IC50 is the concentration that inhibits the measured activity by half.

The first assay addresses T1, Prostaglandin D2 receptor 2 (Homo sapiens, UniProt Q9Y5Y4).
T1 sequence (Q9Y5Y4 whole entry): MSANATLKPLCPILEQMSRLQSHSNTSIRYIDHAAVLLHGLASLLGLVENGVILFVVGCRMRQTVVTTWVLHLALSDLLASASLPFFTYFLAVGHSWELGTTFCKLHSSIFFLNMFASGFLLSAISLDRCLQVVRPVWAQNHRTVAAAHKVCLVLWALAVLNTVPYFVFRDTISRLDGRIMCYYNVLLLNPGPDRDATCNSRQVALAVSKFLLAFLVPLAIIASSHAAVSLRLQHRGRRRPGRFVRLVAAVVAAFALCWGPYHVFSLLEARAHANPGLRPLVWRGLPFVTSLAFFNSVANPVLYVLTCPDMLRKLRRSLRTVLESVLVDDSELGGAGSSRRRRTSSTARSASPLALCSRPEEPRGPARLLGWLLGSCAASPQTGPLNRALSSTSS
As to the kind of experiment: Antagonist activity at DP2 receptor in human whole assessed as inhibition of DK-PGD2-induced eosinophils shape change preincubated for 5 mins followed by DK-PGD2 addition measured after 5 mins by flow cytometry. Background: In flow cytometry, cells or beads pass a laser one at a time.
Turning to `CCS(=O)(=O)c1ccc(Cn2c(C)c(CC(=O)O)c3cccnc32)c(Cl)c1`, the IC50 came out at 7 nM.

Target in a further assay: not listed separately
Nature of the assay: Antagonist activity at DP2 receptor in human whole assessed as inhibition of DK-PGD2-induced eosinophils shape change preincubated for 5 mins followed by DK-PGD2 addition measured after 5 mins by flow cytometry.
As for `Cc1c(CC(=O)O)c2cccnc2n1Cc1ccc(S(C)(=O)=O)cc1Cl`, the IC50 turned out to be 47 nM. For `Cc1c(CC(=O)O)c2cccnc2n1Cc1ccc(S(C)(=O)=O)c(C(F)(F)F)c1`, the IC50 came out at 11 nM. The same measure, in the same setting: the value for `Cc1cc(S(C)(=O)=O)ccc1Cn1c(C)c(CC(=O)O)c2cccnc21` was 32 nM; that for `Cc1c(CC(=O)O)c2cccnc2n1Cc1ccc(C(F)(F)F)cc1C(F)(F)F` was 214 nM. `Cc1c(CC(=O)O)c2ccccc2n1Cc1ccc(S(C)(=O)=O)cc1`: the IC50 was 188 nM. On to `CCS(=O)(=O)c1ccc(Cn2c(C)c(CC(=O)O)c3cccnc32)c(C(F)(F)F)c1`, for which the IC50 was 4 nM.

For the origin of these results see BindingDB's records for doi:10.1021/acsmedchemlett.7b00157 (Novartis Institutes For Biomedical Research, 2017).
